Here are results for two molecules from patent US6610483B1, “Methods for identifying cellular responses attributable to signaling molecule inhibition and inhibitors thereof” (priority 1999, dated 2003).

The subject of test [1] is wild-type yeast cells with CDC28. As to the kind of experiment: DNA chip array of gene transcripts in wild-type yeast cells exposed to the mutant inhibitor. The test is classed as cell-based. The following applies: 500 nM, change of 2 fold or more. The protocol:
Yeast cells expressing a functionally silent, mutant form of the wild-type protein kinase CDC28, termed CDC28 F88G, were prepared by the methods of standard yeast genetics as described in “Guide to Yeast Genetics and Molecular Biology” (Methods in Enzymology, Vol.194) by Christine Guthrie, Gerald R. Fink (Editor) Vol 194 (February 1991) Academic Press. A selective inhibitor of the mutant kinase, with little effect on the wild-type kinase, was prepared and identified using the methods described in Application Serial No. 60/115,340. Using DNA chip array technology, the levels of 6100 gene transcripts were quantitated in mRNA isolated from yeast cells expressing either wild type or F88G (mutant) CDC28 protein kinase either untreated or treated for treated for 30 minutes or 120 minutes with 500 nanomolar (nM) 4-amino-1-(tert-butyl)-3-(1′-naphthylmethyl)pyrazolo[3,4-d]pyrimidine dissolved in DMSO (500) or simply DMSO (DMSO). A change is defined as 2 fold increase or decrease in a gene transcript that is present or absent only in a particular sample. Methods for measuring transcripts were those described in Wodicka L, Dong H, Mittmann M, Ho M H, Lockhart D J, Genome-wide expression monitoring in Saccharomyces cerevisiae, Nat. Biotechnol. (1997) 15:1359-67. […] Effects of the inhibitor were evaluated at 30 and 120 minutes. […]

The test system of a further test is mutant CDC28 F88G cells. Nature of the test: DNA chip array of gene transcripts in mutant CDC28 F88G yeast cells exposed to the mutant inhibitor. It counts as cell-based. The conditions noted are these: 500 nM. The protocol: Yeast cells expressing a functionally silent, mutant form of the wild-type protein kinase CDC28, termed CDC28 F88G, were prepared by the methods of standard yeast genetics as described in “Guide to Yeast Genetics and Molecular Biology” (Methods in Enzymology, Vol.194) by Christine Guthrie, Gerald R. Fink (Editor) Vol 194 (February 1991) Academic Press. A selective inhibitor of the mutant kinase, with little effect on the wild-type kinase, was prepared and identified using the methods described in Application Serial No. 60/115,340. Using DNA chip array technology, the levels of 6100 gene transcripts were quantitated in mRNA isolated from yeast cells expressing either wild type or F88G (mutant) CDC28 protein kinase either untreated or treated for treated for 30 minutes or 120 minutes with 500 nanomolar (nM) 4-amino-1-(tert-butyl)-3-(1′-naphthylmethyl)pyrazolo[3,4-d]pyrimidine dissolved in DMSO (500) or simply DMSO (DMSO). A change is defined as 2 fold increase or decrease in a gene transcript that is present or absent only in a particular sample. Methods for measuring transcripts were those described in Wodicka L, Dong H, Mittmann M, Ho M H, Lockhart D J, Genome-wide expression monitoring in Saccharomyces cerevisiae, Nat. Biotechnol. (1997) 15:1359-67. The results and comparisons among the gene transcripts are shown in FIGS. 1-4, with the identities of the particular gene transcripts listed in FIG. 5. Non-specific drug effects are the result of the exposure of the inhibitor to wild-type cells. The mutation effects are indicated by the alterations between the expression pattern between the mutant cells and the wild-type cells, both in the absence of inhibitor. The results of specific inhibition are shown by the differences between the mutant cells before and after exposure to the inhibitor, including increases and decreases. Effects of the inhibitor were evaluated at 30 and 120 minutes. These two time points were chosen based on the known time interval for yeast cell cycle progression which is about 90 minutes. Thus one time point shorter than the full cell cycle progression time (30 minutes) and one time point longer than […] (120 minutes) were chosen. The comparisons of results are shown in FIGS. 1-4, and the details of the particular transcripts altered in FIG. 5.

For the next test, the system named is PDGFR. The conditions noted are these: cited from earlier work.

In general, IC50 refers to the concentration that inhibits the measured activity by half.

SMILES strings stand for the structures.

`CC(C)(C)n1nc(Cc2cccc3ccccc23)c2c(N)ncnc21` [4-amino-1-(tert-butyl)-3-(1′-naphthylmethyl)pyrazolo[3,4-d]pyrimidine]: the “genes altered (non-specific drug effects)” value in test [1] (30 minute exposure) stood at 7 genes. The “genes altered (non-specific drug effects)” value in test [1] (120 minute exposure) was determined as 3 genes. In the test on mutant CDC28 F88G cells (30 minute exposure), the genes altered turned out to be 85 genes, the “genes decreased more than two-fold” value stood at 74 genes and the “genes increased more than two-fold” value stood at 11 genes. For the same molecule, in the test with mutant CDC28 F88G cells (120 minute exposure), the genes altered worked out at 186 genes, the genes decreased was 100 genes and the genes increased worked out at 86 genes.

As to `Cc1ccc(NC(=O)c2ccc(CN3CCN(C)CC3)cc2)cc1Nc1nccc(-c2cccnc2)n1` [CGP 57148], the 50% inhibitory concentration (IC50) in the test on PDGFR was […].
